# Test results reported in patent publication US11021687B2, “Production of differentiated enteroendocrine cells and insulin producing cells” (Massachusetts Institute of Technology, priority 2016, dated 2021).
# How the values were obtained:
# [1] = test system: intestinal stem cells; assay: mRNA expression (qPCR) of ChgA and other lineage markers in differentiated intestinal stem cells; type: cell-based, mouse; conditions: for EEC marker ChgA expression / expression of markers for K cell (Gip), L cell (Gcg), and I cell (Cck): 5 days 2-step protocol, Tubastatin A in step 1, Tranylcypromine in both steps; for expression of Goblet cell marker (Muc2) and Paneth cell marker (Lyz1): 24-well validation; for expression of enteroendocrine cell marker ChgA: multiple conditions (FIG. 6)
# Excerpt: “mRNA ChgA Expression Assay” refers to an assay used to determine the relative ChgA mRNA expression level in a cell population. For example, the assay can determine ChgA mRNA expression level of a differentiated cell population following treatment with agents being tested, as compared to an untested population of post-natal stem cells. In an example of an mRNA ChgA Expression Assay, the cells were collected and the RNA is extracted from the cells using an RNA extraction kit (such as RNeasy Mini kit, Qiagen). The ChgA expression level is then assessed by Quantitative real-time PCR using a one-step qPCR kit (such as QuantiTech Probe PCR kit, Qiagen) and ChgA primers and probes (such as commercially available Taqman probe for mouse ChgA, Life Technologies).
# (§1) Organoids or differentiated cells were harvested and RNA was extracted using RNeasy Micro Kit (Qiagen) according to the manufacturer's instruction. Quantitative real-time PCR was performed with QuantiTect Probe PCR kit (Qiagen) using commercially available primers and TaqMan probes (Life Technologies).
# Cells were then cultured with EGF, Noggin, and DAPT (END), as well as small molecules. After 2-3 days of differentiation, the cells lysed and ChgA expression was measured by qRT-PCR.
# Small molecules were further validated using a 24-well plate culture and the differentiation system. […] The expression of markers of secretory lineage cells including goblet cells (Muc2), enteroendocrine cells (ChgA), and Paneth cells (Lyz1) were measured.
# [2] = test system: intestinal stem cells; assay: Ngn3 mRNA expression during EEC differentiation; type: cell-based, mouse
# Method: “Ngn3 Assay” as used herein is an assay used to determine the extent of expression of Ngn3 in cells, such as cells subjected to a differentiation protocol. In an exemplary Ngn3 Assay, RNA is isolated from cells that have been cultured according to a differentiation protocol, and quantitative real-time PCR is performed using commercially available primers and probes (such as Taqman probes) to determine an extent of Ngn3 expression in the cells.
# as §1
# There has been prior speculation that Ngn3 positive secretory progenitors differentiate to EECs (Genes Dev. 2002).
# [3] = test system: differentiated cell colonies; conditions: for effect of removal: continuing culture of Islet-like Insulin expression cell colonies
# [4] = test system: intestinal stem cells; assay: ChgA immunostaining of EEC differentiation from intestinal stem cells; type: cell-based, mouse; conditions: organoid culture (ENR) with Notch inhibitor DAPT (ENRD)
# Method: “ChgA Immunostaining Assay” as used herein is an assay used to determine the fraction of cells in a cell population that express ChgA by an immunostaining method. In an example of a ChgA immunostaining assay, a cell culture medium in which a cell population has been treated is removed, and the sample is washed with PBS. Organoids or cell colonies cultured in Matrigel are fixed directly by adding 4% PFA and incubating for 20 mins at room temperature. The Matrigel is then mechanically disrupted, and the cells are transferred to BSA-coated Eppendorf tubes. Samples are washed with PBS, permeabilized with 0.25% Triton X-100 for 30 minutes, and stained with primary antibody against Chromogranin A (e.g. anti-chromogranin A, sc-13090, Santa Cruz) and appropriate secondary antibodies (e.g. Alexa Fluor conjugated secondary antibodies, such as Alexa Fluor 594 conjugated Donkey anti-Rabbit antibody, A-21207; Life Technologies). Images are acquired by confocal microscopy.
# Differentiated cell colonies were collected by gently pipetting into a 1.5 ml protein Lobind Eppendorf tube. Cell culture medium was removed, and samples were washed with PBS. Organoids or cell colonies cultured in Matrigel were fixed by directly adding 4% PFA and incubating for 10-30 min at room temperature. Matrigel was then mechanically disrupted, and cells were transferred into BSA-coated Eppendorf tubes. […]
# [5] = test system: gastrointestinal stem cells; assay: Insulin / Nkx6.1 mRNA expression (qPCR), 3-stage conversion to insulin producing cells; type: cell-based, mouse
# Excerpt: “mRNA Insulin Expression Assay” refers to an assay used to determine the relative insulin mRNA expression level of a cell population. For example, the assay can determine the insulin mRNA level expressed in a cell population treated to increase the expression of insulin in the cells, as compared to an untreated population of cells. In an exemplary mRNA Insulin Expression Assay, the cells were collected and the RNA is extracted from the cells using an RNA extraction kit (such as RNeasy Mini kit, Qiagen). The insulin expression level is then assessed by Quantitative real-time PCR using a one-step qPCR kit (such as QuantiTech Probe PCR kit, Qiagen) and Ins1 or Ins2 primers and probes (such as the commercially available TaqMan probe for mouse Ins1 and Ins2, Life Technologies). The relative insulin mRNA expression can be determined relative to a baseline or other marker, such as Hprt mRNA expression level or other baseline marker.
# as §1
# Based on the protocol to convert gastrointestinal stem cells into insulin producing cells, a 3-stage process was developed, specifically, Day 0-1 as Stage 1, Day 1-3 as Stage 2, Day 3-5 as Stage 3. After Stage 3, the cells turn on significant level of Insulin expression as indicated by Ins-EGFP expression and qPCR for Insulin mRNA expression. Optionally, the cells can be further cultured for 1-2 weeks, as Stage 4. For each stage, a set of specific combination of small molecules (and/or growth factors) were added. The objective was to optimize the reprogramming protocol to increase insulin expression, specifically Insulin mRNA expression for each stage, by screening and testing new small molecules (or growth factors).
# [6] = test system: differentiated intestinal stem cells; assay: Insulin-GFP reporter expression (FACS) in differentiated intestinal stem cells; type: cell-based, mouse
# Excerpt: “Insulin Activity Assay” as used herein is an assay used to determine the extent to which insulin gene transcription, translation or insulin release has been activated in a cell population. In an exemplary Insulin Activity Assay, the initial cells are isolated from the intestine of an Insulin-GFP mouse such as […] mouse (also referred to as the MIT-GFP mouse, Jackson lab stock no.: 006864). Intestinal crypts are isolated from the proximal half of the intestine. […] The cells are then passaged for 1-2 times to create a starting cell population for the assay. To test the capacity of agents to activate insulin gene transcription, translation or insulin release, the cells are incubated with appropriate culture media (e.g. aforementioned crypt culture media), growth factors and/or other agents being tested. Appropriate culture media, including crypt culture media as well as the agents being assessed, are added into each well and incubated with the cells for a period of 2-10 days with media change every 2 days. The fraction of insulin-GFP positive cells (i.e., cells in which the insulin-GFP reporter is activated) can be quantified using a flow cytometer to measure the fraction of GFP+ cell population present in the total cell population. Also, the average insulin activity of a cell population can be measured by measuring the average mRNA expression level of insulin of the population normalized using suitable references or housekeeping genes (e.g., using mRNA expression of Hprt as a baseline).
# [7] = ENRD conditions, 2 days of differentiation
# [8] = 96-well screening, END conditions, 2-3 days
# [9] = 2 days, added after removal of R-spondin1
# [10] = added in step 1 only versus both steps
structure (smiles),measurement,setting,value
N[C@@H]1C[C@H]1c1ccccc1 (racemic) [Tranylcypromine],expression of Goblet cell (Muc2) and Paneth cell (Lyz1) markers,"[1]; 2-step protocol, 5 days",significantly decreased
same,EEC marker ChgA expression,[1],increased
same,"expression of markers for K cell (Gip), L cell (Gcg), and I cell (Cck)",[1],also increased
same,ChgA expression,[1]; [7],increased
same,Ngn3 expression,[2]; [7],increase
O=C(NC[C@H](O)CO)c1ccncc1Nc1ccc(I)cc1F [AS703026],expression of Goblet cell marker (Muc2) and Paneth cell marker (Lyz1),[1]; END conditions,not similarly increased
same,ChgA expression,[1]; [8],increased
same,expression of enteroendocrine cell marker ChgA,[1],specifically increased
same,Ngn3 expression,[2]; [9],further decreased
"C[C@H](NC(=O)Cc1cc(F)cc(F)c1)C(=O)N[C@H](C(=O)OC(C)(C)C)c1ccccc1 [DAPT, N—[N-(3,5-Difluorophenacetyl)-L-alanyl]-S-phenylglycine t-butyl ester]",effect of removal,[3],could be removed without much influence
same,stem cells turned into EECs,[4],5%-10%
same,concentration of highest activity / optimal concentration in promoting Insulin expression,[5]; dose response,5 µM
COc1cc2ncnc(Nc3ccc(F)c(Cl)c3)c2cc1OCCCN1CCOCC1 [Gefitinib],expression of Goblet cell marker (Muc2) and Paneth cell marker (Lyz1),[1]; END conditions,not similarly increased
same,ChgA expression,[1]; [8],increased
same,expression of enteroendocrine cell marker ChgA,[1],specifically increased
same,Ngn3 expression,[2]; [9],further decreased
"O=C(NOC[C@H](O)CO)c1ccc(F)c(F)c1Nc1ccc(I)cc1F [PD0325901, N-[(2R)-2,3-Dihydroxypropoxyl]-3,4-difluoro-2-[(2-fluoro-4-iodophenyl)amino]-benzamide]",expression of Goblet cell marker (Muc2) and Paneth cell marker (Lyz1),[1]; END conditions,not similarly increased
same,expression of enteroendocrine cell marker ChgA,[1],specifically increased
same,effect of removal,[3],could be removed without much influence
same,Ngn3 expression,[2]; [9],further decreased
"CN1CCc2c(c3ccccc3n2Cc2ccc(C(=O)NO)cc2)C1.Cl [Tubastatin A, N-Hydroxy-4-(2-methyl-1,2,3,4-tetrahydro-pyrido[4,3-b]indol-5-ylmethyl)benzamide hydrochloride]",EEC marker ChgA expression,[1],increased
same,"expression of markers for K cell (Gip), L cell (Gcg), and I cell (Cck)",[1],also increased
same,ChgA expression,[1]; [7],decreased
same,Ngn3 expression,[2]; [7],increase
"Cc1cccc(-c2n[nH]cc2-c2ccc3ncccc3n2)n1 [compound 616452, 2-[3-(6-methyl-2-pyridinyl)-1H-pyrazol-4-yl]-1,5naphthyridine]","expression of mature EEC markers (Gcg, Gip, Cck, Tph1, Sst, Sct, Pyy)",[1]; 2-step protocol,greatly increased
same,goblet cell marker Muc2 expression,[1]; 2-step protocol,decreased
same,Cck expression over the expression level in the ENR condition,[1]; 2-step protocol with Repsox,430 ×
same,Gip expression over the expression level in the ENR condition,[1]; 2-step protocol with Repsox,800 ×
same,Pyy expression over the expression level in the ENR condition,[1]; 2-step protocol with Repsox,"15,000 ×"
same,Sct expression over the expression level in the ENR condition,[1]; 2-step protocol with Repsox,300 ×
same,Tph1 expression over the expression level in the ENR condition,[1]; 2-step protocol with Repsox,120 ×
same,ChgA level,[1]; [10],comparable level
same,expression of mature EEC markers,[1]; [10],greatly reduced
same,ChgA expression,[1]; added in step 2 of 2-step protocol,greatly promoted
same,"expression of functional EEC markers such as Gip, Gcg, Cck, Pyy",[1]; relative to reference gene Hprt,greatly increase
same,cell death in the culture,[3],induced cell death
same,optimal concentration in inducing insulin-GFP expression,"[6]; dose response, day 5",5 µM
same,cells becoming GFP positive,[6]; during EEC differentiation from ISCs,about 1%
same,Insulin mRNA (Ins2),[5]; added in Stage 1-3 compared with Stage 2-3,increased
same,optimal dose in promoting Insulin and Nkx6.1 expression,[5]; dose response,10 to 15 µM
